#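 48-hour exposure; five concentrations; linearly interpolated endpoints. At the TGI there is no net growth.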
# Experiments:
# Assay in all cases: NCI anticancer screen, dose series, 48 h
# 786-0 renal = tested on: 786-0 renal
# A549 NSCLC = tested on: A549 NSCLC
# COLO 205 colon = tested on: COLO 205 colon
# HL-60(TB) leukemia = tested on: HL-60(TB) leukemia
# HT29 colon = tested on: HT29 colon
# OVCAR-5 ovarian = tested on: OVCAR-5 ovarian
# SK-MEL-2 melanoma = tested on: SK-MEL-2 melanoma
# SNB-75 CNS = tested on: SNB-75 CNS
# TK-10 renal = tested on: TK-10 renal
# UACC-257 melanoma = tested on: UACC-257 melanoma
# HCC-2998 colon = tested on: HCC-2998 colon
# LOX IMVI melanoma = tested on: LOX IMVI melanoma
# OVCAR-3 ovarian = tested on: OVCAR-3 ovarian
SMILES,TGI (786-0 renal) [µM],TGI (A549 NSCLC) [µM],TGI (COLO 205 colon) [µM],TGI (HL-60(TB) leukemia) [µM],TGI (HT29 colon) [µM],TGI (OVCAR-5 ovarian) [µM],TGI (SK-MEL-2 melanoma) [µM],TGI (SNB-75 CNS) [µM],TGI (TK-10 renal) [µM],TGI (UACC-257 melanoma) [µM],TGI (HCC-2998 colon) [µM],TGI (LOX IMVI melanoma) [µM],TGI (OVCAR-3 ovarian) [µM]
CCCC(CCC(N)=O)(CCC(N)=O)[N+](=O)[O-],> 100,> 100,> 100,> 100,> 100,> 100,> 100,> 100,> 100,> 100,–,–,–
C/C(=N\N=C(\N)SB(F)F)c1ccc2ccccc2c1,> 100,> 100,> 100,–,> 100,> 100,> 100,> 100,> 100,> 100,> 100,> 100,–
Cn1c2ccccc2c2c3c(c4c5ccccc5n(C)c4c21)C(=O)NC3=O,27.5,> 85.3,> 100,–,> 100,> 100,> 58.3,> 95.7,> 100,> 100,> 100,> 100,–
CN1C/C(=C\c2cccs2)C(O)/C(=C/c2cccs2)C1 (configuration not stated),> 100,> 100,> 100,–,> 100,> 100,> 100,–,> 100,> 100,> 100,> 100,> 100
O=C(OC1C2OC(=O)c3cc(O)c(O)c(O)c3Oc3cc4c(c(O)c3O)-c3c(cc(O)c(O)c3O)C(=O)OCC3OC(O)C(OC(=O)c5cc(O)c(O)c(O)c5Oc5cc6c(c(O)c5O)-c5c(cc(O)c(O)c5O)C(=O)OC1C(COC6=O)OC2O)C(OC(=O)c1cc(O)c(O)c(O)c1)C3OC4=O)c1cc(O)c(O)c(O)c1 (configuration not stated),47.1,39.7,54,44.4,51.6,> 100,–,–,> 100,> 100,–,59.7,> 100
CCN1CCC(O)(c2ccc(Oc3ccc(F)cc3)cc2)C(C(=O)c2ccc(Oc3ccc(F)cc3)cc2)C1 (configuration not stated),26.4,29.5,33.5,–,23.6,28.5,31.6,30.3,23.5,29.8,23.6,25.9,28.6
O=C1/C(=C\c2cccc(Oc3ccccc3)c2)SC(c2ccccc2)N1c1ccccc1 (configuration not stated),> 100,> 100,> 100,> 100,> 100,> 100,> 100,–,> 100,> 100,> 100,> 100,> 100
COC(=O)c1ccc(/C=C2\Oc3ccccc3C2=O)cc1,> 100,> 100,> 100,54.4,> 100,–,–,> 100,> 100,> 100,> 100,–,> 100
O=C(/C=C/c1ccc(-c2ccccc2)cc1)NCc1ccc(C(=O)NCc2ccccc2)cc1,> 100,> 100,> 100,–,> 100,> 100,> 100,> 100,> 100,> 100,> 100,> 100,> 100
CCOc1ccc2[nH]c3c(C)c4ccncc4c(C)c3c2c1,2.2,2.88,3.04,–,2.18,2.93,2.48,3.1,3.59,3.24,2.74,2.49,17.7
CCOC(=O)c1nnsc1N/N=C\c1ccc([N+](=O)[O-])cc1,> 100,> 100,> 100,–,> 100,> 100,> 100,> 100,> 100,> 100,> 100,–,> 100
O=C1C(Br)=C(c2ccccc2)O/C1=C/C(=O)c1ccc(Br)cc1,47,–,> 100,52.4,> 100,> 100,–,> 100,> 100,–,> 100,–,> 100
Cc1ccc(/C=N/n2c(-c3ccc(C)cc3)n[nH]c2=O)cc1,> 100,> 100,> 100,> 100,> 100,> 100,> 100,> 100,> 100,> 100,> 100,–,> 100
COc1cc2c(cc1OC)C(=O)N(c1ccc(O)cc1)C2=O,> 100,> 100,> 100,> 100,> 100,> 100,> 100,–,> 100,> 100,> 100,> 100,> 100
C=CCC1CC(n2cc(C)c(=O)[nH]c2=O)OC1CO[Si](C)(C)C(C)(C)C (configuration not stated),28.8,26.8,27,–,30.9,31.7,32.8,25.4,30.1,33.8,35.5,26.2,31
CC1=NC2=Nc3nc(C)cc[n+]3CN2C=C1,> 100,> 100,> 100,–,> 100,> 100,> 100,> 100,> 100,> 100,> 100,> 100,> 100
O=S(=O)(O)c1cc(N=Nc2c(O)ccc3ccccc23)ccc1/C=C/c1ccc(N=Nc2c(O)ccc3ccccc23)cc1S(=O)(=O)O,> 100,> 100,> 100,–,> 100,> 100,> 100,> 100,> 100,> 100,–,–,> 100
c1cc2c(s1)-c1sccc1C21OCCO1,> 100,> 100,> 100,> 100,> 100,> 100,> 100,–,> 100,> 100,> 100,> 100,> 100
CC(NC(=O)NC(C)(C)C)NC(=O)C(N)CC(=O)O (configuration not stated),> 100,> 100,> 100,–,> 100,> 100,> 100,> 100,> 100,> 100,–,> 100,> 100

# From PubChem BioAssay (NCI)
